# Measurements: ChEMBL document CHEMBL4251601 (Eur J Med Chem, 2018)
# What was measured:
# [1] = Clearance in Sprague-Dawley rat at 2 mg/kg, iv administered as single dose by LC-MS/MS analysis; format: ADME, organism-based; settings: in vivo
# [2] = AUC (0 to infinity) in Sprague-Dawley rat at 2 mg/kg, iv administered as single dose by LC-MS/MS analysis; format: ADME, organism-based; parameters: dose 2 mg/kg, route intravenous, time infinity; settings: Sprague-Dawley, in vivo
# [3] = target: Serine/threonine-protein kinase MRCK beta (Homo sapiens) (UniProt Q9Y5S2); experiment: Inhibition of recombinant human His-tagged CDC42 BPB expressed in baculovirus expression system at 0.1 uM by Z'-Lyte assay relative to control
# [4] = target: Serine/threonine-protein kinase Chk2 (Homo sapiens) (UniProt O96017); experiment: Inhibition of recombinant full length human His-tagged CHEK2 expressed in baculovirus expression system at 0.1 uM by Z'-Lyte assay relative to control
# [5] = target: Casein kinase I isoform gamma-1 (Homo sapiens) (UniProt Q9HCP0); experiment: Inhibition of recombinant full length human GST-tagged CK1gamma1 expressed in baculovirus expression system at 0.1 uM by Z'-Lyte assay relative to control
# Sequence of Casein kinase I isoform gamma-1 (Homo sapiens) (Q9HCP0 whole entry, looked up, canonical isoform): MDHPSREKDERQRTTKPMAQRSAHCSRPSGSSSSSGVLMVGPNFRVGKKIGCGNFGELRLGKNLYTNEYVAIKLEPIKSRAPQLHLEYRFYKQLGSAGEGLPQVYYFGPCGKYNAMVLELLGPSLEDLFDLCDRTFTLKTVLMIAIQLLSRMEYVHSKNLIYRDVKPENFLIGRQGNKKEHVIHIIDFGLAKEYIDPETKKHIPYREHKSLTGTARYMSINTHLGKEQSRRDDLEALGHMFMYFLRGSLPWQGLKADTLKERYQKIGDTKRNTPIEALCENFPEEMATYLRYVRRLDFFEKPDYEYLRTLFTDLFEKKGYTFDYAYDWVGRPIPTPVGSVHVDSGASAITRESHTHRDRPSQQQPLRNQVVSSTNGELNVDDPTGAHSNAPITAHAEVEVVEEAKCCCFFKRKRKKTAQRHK
# [6] = target: G protein-coupled receptor kinase 6 (Homo sapiens) (UniProt P43250); experiment: Inhibition of recombinant human full length GST-tagged GRK6 expressed in baculovirus expression system at 0.1 uM by Z'-Lyte assay relative to control
# [7] = target: Glycogen synthase kinase-3 beta (Homo sapiens) (UniProt P49841); experiment: Inhibition of recombinant human full length His-tagged GSK3beta expressed in baculovirus expression system at 0.1 uM by Z'-Lyte assay relative to control
# Sequence of Glycogen synthase kinase-3 beta (Homo sapiens) (P49841 whole entry, looked up): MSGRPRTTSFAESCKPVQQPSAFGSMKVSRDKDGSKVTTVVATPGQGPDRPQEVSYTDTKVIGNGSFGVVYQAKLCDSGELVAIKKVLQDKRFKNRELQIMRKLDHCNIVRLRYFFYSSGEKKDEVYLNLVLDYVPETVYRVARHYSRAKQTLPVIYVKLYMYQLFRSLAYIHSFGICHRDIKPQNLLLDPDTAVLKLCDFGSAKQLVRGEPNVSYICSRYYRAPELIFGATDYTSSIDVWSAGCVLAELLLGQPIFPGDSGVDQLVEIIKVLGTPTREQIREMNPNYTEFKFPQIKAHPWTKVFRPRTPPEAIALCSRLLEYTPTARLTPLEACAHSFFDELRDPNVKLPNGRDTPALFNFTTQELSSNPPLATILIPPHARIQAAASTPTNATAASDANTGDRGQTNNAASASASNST
# [8] = target: Tyrosine-protein kinase JAK2 (Homo sapiens) (UniProt O60674); experiment: Inhibition of recombinant human GST-tagged JAK2 expressed in baculovirus expression system at 0.1 uM by TR-FRET assay relative to control
# [9] = target: Tyrosine-protein kinase Mer (Homo sapiens) (UniProt Q12866); experiment: Inhibition of recombinant human GST-tagged MERTK (578 to 872 residues) expressed in baculovirus expression system at 0.1 uM by Z'-Lyte assay relative to control
# [10] = target: Serine/threonine-protein kinase PAK 1 (Homo sapiens) (UniProt Q13153); experiment: Inhibition of recombinant human full length GST-tagged PAK1 expressed in baculovirus expression system at 0.1 uM by Z'-Lyte assay relative to control
# [11] = target: Serine/threonine-protein kinase PAK 4 (Homo sapiens) (UniProt O96013); experiment: Inhibition of recombinant human GST-tagged PAK4 expressed in baculovirus expression system at 0.1 uM by Z'-Lyte assay relative to control
# [12] = target: 3-phosphoinositide-dependent protein kinase 1 (Homo sapiens) (UniProt O15530); experiment: Inhibition of recombinant human full length His-tagged PDK1 expressed in baculovirus expression system at 0.1 uM by Z'-Lyte assay relative to control
# Sequence of 3-phosphoinositide-dependent protein kinase 1 (Homo sapiens) (O15530 whole entry, canonical isoform): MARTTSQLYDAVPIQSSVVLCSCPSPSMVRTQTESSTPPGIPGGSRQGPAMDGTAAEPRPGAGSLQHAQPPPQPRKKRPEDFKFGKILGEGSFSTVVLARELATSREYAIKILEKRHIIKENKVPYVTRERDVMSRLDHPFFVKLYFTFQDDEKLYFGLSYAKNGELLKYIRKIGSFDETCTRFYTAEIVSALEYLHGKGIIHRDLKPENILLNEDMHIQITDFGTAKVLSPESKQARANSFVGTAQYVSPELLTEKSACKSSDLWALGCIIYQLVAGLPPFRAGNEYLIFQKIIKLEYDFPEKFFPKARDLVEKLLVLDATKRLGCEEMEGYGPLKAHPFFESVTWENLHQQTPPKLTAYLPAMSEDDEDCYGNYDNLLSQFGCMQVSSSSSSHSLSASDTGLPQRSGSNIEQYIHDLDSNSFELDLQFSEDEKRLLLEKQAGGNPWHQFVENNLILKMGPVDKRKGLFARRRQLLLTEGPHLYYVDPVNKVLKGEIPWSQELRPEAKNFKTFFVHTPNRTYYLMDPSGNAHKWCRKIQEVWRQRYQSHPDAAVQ
# [13] = target: Protein kinase C beta type (Homo sapiens) (UniProt P05771); experiment: Inhibition of PKCbeta2 (unknown origin) at 0.1 uM by Z'-Lyte assay relative to control
# Sequence of Protein kinase C beta type (Homo sapiens) (P05771 2-671 limits assumed): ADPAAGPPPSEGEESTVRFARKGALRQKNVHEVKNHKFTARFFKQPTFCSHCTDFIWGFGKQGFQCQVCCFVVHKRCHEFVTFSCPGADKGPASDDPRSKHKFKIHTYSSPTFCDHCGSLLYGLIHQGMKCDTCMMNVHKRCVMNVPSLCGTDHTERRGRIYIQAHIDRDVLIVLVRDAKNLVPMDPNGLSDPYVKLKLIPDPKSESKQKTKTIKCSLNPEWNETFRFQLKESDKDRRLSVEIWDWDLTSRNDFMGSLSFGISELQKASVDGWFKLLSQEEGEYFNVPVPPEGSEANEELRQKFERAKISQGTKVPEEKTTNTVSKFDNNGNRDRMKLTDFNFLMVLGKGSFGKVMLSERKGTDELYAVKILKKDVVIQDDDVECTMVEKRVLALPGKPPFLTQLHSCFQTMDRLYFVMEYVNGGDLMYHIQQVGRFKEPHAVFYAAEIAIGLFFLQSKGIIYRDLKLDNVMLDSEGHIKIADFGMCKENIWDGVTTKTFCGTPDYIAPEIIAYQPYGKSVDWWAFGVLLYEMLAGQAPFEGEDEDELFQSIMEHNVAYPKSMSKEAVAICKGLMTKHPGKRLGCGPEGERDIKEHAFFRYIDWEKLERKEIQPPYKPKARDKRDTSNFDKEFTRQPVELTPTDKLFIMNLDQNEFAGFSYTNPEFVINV
# [14] = target: STE20-like serine/threonine-protein kinase (Homo sapiens) (UniProt Q9H2G2); experiment: Inhibition of recombinant human full length GST-tagged SLK expressed in baculovirus expression system at 0.1 uM by LanthaScreen assay relative to control
# Sequence of STE20-like serine/threonine-protein kinase (Homo sapiens) (Q9H2G2 whole entry, looked up, the tested form may be a part): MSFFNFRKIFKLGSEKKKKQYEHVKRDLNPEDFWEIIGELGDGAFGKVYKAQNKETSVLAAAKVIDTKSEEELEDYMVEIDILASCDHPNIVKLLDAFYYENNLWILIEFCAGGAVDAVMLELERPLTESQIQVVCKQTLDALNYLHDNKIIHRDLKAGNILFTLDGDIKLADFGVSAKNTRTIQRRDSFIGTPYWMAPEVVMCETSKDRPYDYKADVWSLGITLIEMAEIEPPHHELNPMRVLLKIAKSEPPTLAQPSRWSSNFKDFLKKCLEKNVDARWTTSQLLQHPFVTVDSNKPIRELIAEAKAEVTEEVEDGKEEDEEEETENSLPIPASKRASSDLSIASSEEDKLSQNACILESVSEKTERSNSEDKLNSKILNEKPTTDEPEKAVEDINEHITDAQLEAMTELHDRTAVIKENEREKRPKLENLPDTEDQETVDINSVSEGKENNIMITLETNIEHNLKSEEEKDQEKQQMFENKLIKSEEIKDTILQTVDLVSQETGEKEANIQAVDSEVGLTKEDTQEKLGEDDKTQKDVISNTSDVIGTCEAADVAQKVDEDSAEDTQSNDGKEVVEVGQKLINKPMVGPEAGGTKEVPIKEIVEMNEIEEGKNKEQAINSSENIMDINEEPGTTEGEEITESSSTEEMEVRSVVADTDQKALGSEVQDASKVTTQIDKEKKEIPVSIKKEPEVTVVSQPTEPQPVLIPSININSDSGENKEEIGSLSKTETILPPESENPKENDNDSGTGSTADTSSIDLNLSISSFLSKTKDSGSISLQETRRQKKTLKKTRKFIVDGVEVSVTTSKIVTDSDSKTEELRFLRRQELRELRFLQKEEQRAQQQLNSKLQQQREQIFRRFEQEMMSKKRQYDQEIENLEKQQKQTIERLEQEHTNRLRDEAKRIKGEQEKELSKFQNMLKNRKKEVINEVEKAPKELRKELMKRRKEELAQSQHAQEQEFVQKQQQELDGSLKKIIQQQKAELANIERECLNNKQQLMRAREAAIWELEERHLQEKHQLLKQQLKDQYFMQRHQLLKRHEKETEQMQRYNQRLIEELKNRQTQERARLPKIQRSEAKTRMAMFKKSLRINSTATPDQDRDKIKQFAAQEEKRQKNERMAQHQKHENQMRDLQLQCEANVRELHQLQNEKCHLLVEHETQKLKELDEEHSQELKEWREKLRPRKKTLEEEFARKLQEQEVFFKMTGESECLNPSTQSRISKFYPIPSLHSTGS
# [15] = system: ALK tyrosine kinase receptor (Homo sapiens), Q9UM73 [L1196M]; experiment: Inhibition of recombinant N-terminal GST-tagged human ALK cytoplasmic domain (1058 to 1620 residues) L1196M mutant expressed in baculovirus expression system at 1 uM by TR-FRET assay relative to control
# [16] = target: ALK tyrosine kinase receptor (Homo sapiens) (UniProt Q9UM73); experiment: Inhibition of recombinant N-terminal GST-tagged human ALK cytoplasmic domain (1058 to 1620 residues) expressed in baculovirus expression system at 1 uM by TR-FRET assay relative to control
# [17] = target: Aurora kinase A (Homo sapiens) (UniProt O14965); experiment: Inhibition of recombinant full length human His-tagged AURKA expressed in baculovirus expression system at 1 uM by Z'-Lyte assay relative to control
# Sequence of Aurora kinase A (Homo sapiens) (O14965 whole entry): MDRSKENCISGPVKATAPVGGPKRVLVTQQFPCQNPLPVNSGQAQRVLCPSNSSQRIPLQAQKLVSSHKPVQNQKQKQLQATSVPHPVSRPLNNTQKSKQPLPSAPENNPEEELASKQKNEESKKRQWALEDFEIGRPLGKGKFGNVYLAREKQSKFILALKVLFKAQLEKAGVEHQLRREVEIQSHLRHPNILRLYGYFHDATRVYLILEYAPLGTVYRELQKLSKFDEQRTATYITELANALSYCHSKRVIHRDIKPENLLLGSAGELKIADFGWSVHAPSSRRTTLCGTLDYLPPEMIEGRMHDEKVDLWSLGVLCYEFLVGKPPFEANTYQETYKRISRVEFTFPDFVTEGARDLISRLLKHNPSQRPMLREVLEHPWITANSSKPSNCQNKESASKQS
# [18] = target: Tyrosine-protein kinase ITK/TSK (Homo sapiens) (UniProt Q08881); experiment: Inhibition of recombinant full length human GST-tagged ITK expressed in baculovirus expression system at 1 uM by TR-FRET assay relative to control
# [19] = target: Mitogen-activated protein kinase 8 (Homo sapiens) (UniProt P45983); experiment: Inhibition of recombinant human full length His-tagged JNK1 expressed in baculovirus expression system at 1 uM by Z'-Lyte assay relative to control
# [20] = target: Vascular endothelial growth factor receptor 2 (Homo sapiens) (UniProt P35968); experiment: Inhibition of recombinant human His-tagged KDR cytoplasmic domain expressed in baculovirus expression system at 1 uM by Z'-Lyte assay relative to control
# Sequence of Vascular endothelial growth factor receptor 2 (Homo sapiens) (P35968 whole entry, the tested form may be a part): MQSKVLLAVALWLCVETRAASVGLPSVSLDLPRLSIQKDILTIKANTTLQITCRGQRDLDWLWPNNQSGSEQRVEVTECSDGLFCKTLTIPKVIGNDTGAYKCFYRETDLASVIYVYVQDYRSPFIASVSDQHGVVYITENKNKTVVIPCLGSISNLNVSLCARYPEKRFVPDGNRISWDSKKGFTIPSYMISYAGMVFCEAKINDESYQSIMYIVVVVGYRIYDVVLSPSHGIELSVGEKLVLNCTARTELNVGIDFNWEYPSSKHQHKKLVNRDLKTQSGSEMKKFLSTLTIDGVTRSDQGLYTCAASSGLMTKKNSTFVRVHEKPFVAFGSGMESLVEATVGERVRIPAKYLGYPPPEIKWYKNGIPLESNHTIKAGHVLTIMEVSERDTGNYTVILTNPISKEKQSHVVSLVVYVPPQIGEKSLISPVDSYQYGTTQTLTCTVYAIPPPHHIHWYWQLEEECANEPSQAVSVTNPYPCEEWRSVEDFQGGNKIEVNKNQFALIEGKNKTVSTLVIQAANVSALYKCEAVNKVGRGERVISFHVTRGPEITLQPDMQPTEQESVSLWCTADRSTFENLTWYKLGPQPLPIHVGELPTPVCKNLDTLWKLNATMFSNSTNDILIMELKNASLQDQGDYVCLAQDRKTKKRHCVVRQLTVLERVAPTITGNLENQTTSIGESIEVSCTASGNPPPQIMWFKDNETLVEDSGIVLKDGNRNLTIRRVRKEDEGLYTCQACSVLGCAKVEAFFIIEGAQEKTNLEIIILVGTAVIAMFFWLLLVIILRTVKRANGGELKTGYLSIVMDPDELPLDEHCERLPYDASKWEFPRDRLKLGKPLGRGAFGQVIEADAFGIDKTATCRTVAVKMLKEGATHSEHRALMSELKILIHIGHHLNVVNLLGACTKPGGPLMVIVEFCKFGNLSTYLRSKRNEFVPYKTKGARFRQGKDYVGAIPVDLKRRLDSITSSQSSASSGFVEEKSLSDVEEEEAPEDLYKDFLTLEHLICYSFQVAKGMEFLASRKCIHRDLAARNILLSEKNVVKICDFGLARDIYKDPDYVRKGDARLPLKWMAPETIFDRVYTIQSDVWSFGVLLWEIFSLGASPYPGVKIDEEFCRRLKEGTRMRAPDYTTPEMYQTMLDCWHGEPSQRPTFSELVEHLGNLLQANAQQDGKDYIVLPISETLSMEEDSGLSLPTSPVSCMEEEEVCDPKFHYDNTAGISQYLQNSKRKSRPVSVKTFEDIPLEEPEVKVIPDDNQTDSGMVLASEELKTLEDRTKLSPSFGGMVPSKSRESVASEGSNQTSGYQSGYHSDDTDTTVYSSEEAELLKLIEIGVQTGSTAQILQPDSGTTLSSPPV
# [21] = target: Serine/threonine-protein kinase 10 (Homo sapiens) (UniProt O94804); experiment: Inhibition of LOK1 (unknown origin) at 1 uM by Z'-Lyte assay relative to control
# [22] = target: 3-phosphoinositide-dependent protein kinase 1 (Homo sapiens) (UniProt O15530); experiment: Inhibition of recombinant human full length His-tagged PDK1 expressed in baculovirus expression system at 1 uM by Z'-Lyte assay relative to control
# [23] = target: Phosphatidylinositol 4,5-bisphosphate 3-kinase catalytic subunit beta isoform (Homo sapiens) (UniProt P42338); experiment: Inhibition of PI3K beta (unknown origin) at 1 uM by ADP-Glo assay relative to control
# [24] = target: Phosphatidylinositol 4,5-bisphosphate 3-kinase catalytic subunit delta isoform (Homo sapiens) (UniProt O00329); experiment: Inhibition of PI3K delta (unknown origin) at 1 uM by ADP-Glo assay relative to control
# [25] = target: Tyrosine-protein kinase Tec (Homo sapiens) (UniProt P42680); experiment: Inhibition of recombinant human full length His-tagged TEC expressed in baculovirus expression system at 1 uM by TR-FRET assay relative to control
# [26] = Volume of distribution at steady state in ICR mouse at 2 mg/kg, iv administered as single dose by LC-MS/MS analysis; format: ADME, organism-based; settings: in vivo, read-out: Vdss
# [27] = AUC (0 to 24 hrs) in ICR mouse at 2 mg/kg, iv administered as single dose by LC-MS/MS analysis; format: ADME, organism-based; parameters: dose 2 mg/kg, time < 24 hr, route intravenous; settings: in vivo
# [28] = AUC (0 to 24 hrs) in ICR mouse at 5 mg/kg, po administered as single dose by LC-MS/MS analysis; format: ADME, organism-based; parameters: time < 24 hr, dose 5 mg/kg, route oral; settings: in vivo
# [29] = AUC (0 to 48 hrs) in CD-1 mouse brain at 10 mg/kg, po administered as single dose by LC-MS/MS analysis; format: ADME, organism-based; parameters: dose 10 mg/kg, time < 48 hr, route oral; settings: in vivo
# U-87 MG = experiment: Antitumor activity against luciferase-fused human U87MG cells orthotopically xenografted in nude mouse assessed as tumor growth inhibition at 3.125 mg/kg, po qd for 4 weeks by bioluminescence imaging relative to control; format: functional, U-87MG ATCC; settings: 672 h, read-out: TGI
# [30] = target: Tyrosine-protein kinase SYK (Homo sapiens) (UniProt P43405); experiment: Inhibition of recombinant human full length GST-tagged SYK expressed in baculovirus expression system at 1 uM by Z'-Lyte assay relative to control
compound,measurement,setting,value
CC1=Nc2c(F)cc(-c3nc(Nc4ccc(C5CCN(C)CC5)cn4)ncc3F)cc2C12CCCC2 [CROZBACICLIB],clearance,[1],34.9 mL/min/kg
same,AUC(0-inf),[2],959 ng·h/mL
same,inhibition,[3],15%
same,inhibition,[4],-2%
same,inhibition,[5],3%
same,inhibition,[6],-4%
same,inhibition,[7],12%
same,inhibition,[8],24%
same,inhibition,[9],-1%
same,inhibition,[10],-2%
same,inhibition,[11],4%
same,inhibition,[12],-3%
same,inhibition,[13],3%
same,inhibition,[14],11%
same,inhibition,[15],34%
same,inhibition,[16],89%
same,inhibition,[17],6%
same,inhibition,[18],3%
same,inhibition,[19],82%
same,inhibition,[20],14%
same,inhibition,[21],81%
same,inhibition,[22],4%
same,inhibition,[23],11%
same,inhibition,[24],14%
same,inhibition,[25],2%
same,Vd,[26],17.8 L/kg
same,AUC(0-t) at 24 h,[27],1140 ng·h/mL
same,AUC(0-t) at 24 h,[28],2130 ng·h/mL
same,AUC,[29],37178 ng·h/g
same,inhibition in vivo at 3.125 mg/kg,U-87 MG,62%
same,inhibition,[30],26%
